# Laboratory results from PubChem BioAssay AID248 (DTP/NCI, 2004).
# Where “and” joins values, the source holds several entries; their conditions need not be identical. Equal entries are not always repeated. Inconclusive results and toxic doses are left out. Peptide text beside a SMILES is read from it.
# System: L1210 leukemia ip in BDF1 mice, survival T/C
# Assay: NCI In Vivo Anticancer Drug Screen. Data for tumor model L1210 Leukemia (intraperitoneal) in B6D2F1 (BDF1) mice
# Settings: endpoint: mean survival time, higher = longer survival
# Outline: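 Transplantable tumor model; survival measured in treated vs vehicle control mice. Value = treated/control.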
# [1] = dose: 100.0 mg/kg/injection, schedule: Q01DX009 (ip), vehicle: saline with Tween-80
# [2] = dose: 200.0 mg/kg/injection, schedule: Q01DX009 (ip), vehicle: saline with Tween-80
# [3] = dose: 400.0 mg/kg/injection, schedule: Q01DX009 (ip), vehicle: saline with Tween-80
# [4] = dose: 50.0 mg/kg/injection, schedule: Q01DX001 (ip), vehicle: saline
# [5] = dose: 100.0 mg/kg/injection, schedule: Q01DX001 (ip), vehicle: saline
# [6] = dose: 75.0 mg/kg/injection, schedule: Q01DX001 (ip), vehicle: saline
# [7] = dose: 50.0 mg/kg/injection, schedule: Q01DX009 (ip), vehicle: Klucel (hydroxypropylcellulose) (HPC)
# [8] = dose: 100.0 mg/kg/injection, schedule: Q01DX009 (ip), vehicle: Klucel (hydroxypropylcellulose) (HPC)
# [9] = dose: 200.0 mg/kg/injection, schedule: Q01DX009 (ip), vehicle: Klucel (hydroxypropylcellulose) (HPC)
# [10] = dose: 400.0 mg/kg/injection, schedule: Q01DX009 (ip), vehicle: Klucel (hydroxypropylcellulose) (HPC)
# [11] = dose: 100.0 mg/kg/injection, schedule: Q04DX002 (ip), vehicle: saline with Tween-80
# [12] = dose: 100.0 mg/kg/injection, schedule: Q04DX003 (ip), vehicle: Klucel (hydroxypropylcellulose) (HPC)
# [13] = dose: 200.0 mg/kg/injection, schedule: Q04DX003 (ip), vehicle: Klucel (hydroxypropylcellulose) (HPC)
# [14] = dose: 400.0 mg/kg/injection, schedule: Q04DX003 (ip), vehicle: Klucel (hydroxypropylcellulose) (HPC)
# [15] = dose: 100.0 mg/kg/injection, schedule: Q04DX002 (ip), vehicle: Klucel (hydroxypropylcellulose) (HPC)
# [16] = dose: 200.0 mg/kg/injection, schedule: Q04DX002 (ip), vehicle: Klucel (hydroxypropylcellulose) (HPC)
# [17] = dose: 12.5 mg/kg/injection, schedule: Q04DX002 (ip), vehicle: saline
# [18] = dose: 25.0 mg/kg/injection, schedule: Q04DX002 (ip), vehicle: saline
# [19] = dose: 50.0 mg/kg/injection, schedule: Q04DX002 (ip), vehicle: saline
# [20] = dose: 100.0 mg/kg/injection, schedule: Q04DX003 (ip), vehicle: saline
# [21] = dose: 200.0 mg/kg/injection, schedule: Q04DX003 (ip), vehicle: saline
# [22] = dose: 400.0 mg/kg/injection, schedule: Q04DX003 (ip), vehicle: saline
smiles,measurement,setting,value
O=C(Nc1ccccc1)c1ccc2c(c1)C(=O)N(c1ccccc1)C2=O,T/C,"dose: 100.0 mg/kg/injection, schedule: Q04DX002 (ip), vehicle: saline",90 % of control
same,T/C,"dose: 200.0 mg/kg/injection, schedule: Q04DX002 (ip), vehicle: saline",87 % of control
CC(=O)OC(CC/C(C)=C/COC1CCCCO1)C(C)(C)O (stereo unspecified),T/C,"dose: 100.0 mg/kg/injection, schedule: Q01DX001 (ip), vehicle: saline with Tween-80",102 % of control
same,T/C,[1],95 % of control
same,T/C,"dose: 200.0 mg/kg/injection, schedule: Q01DX001 (ip), vehicle: saline with Tween-80",103 % of control
same,T/C,[2],98 % of control
same,T/C,"dose: 400.0 mg/kg/injection, schedule: Q01DX001 (ip), vehicle: saline with Tween-80",105 % of control
same,T/C,[3],96 % of control
O=C1Nc2ccccc2/C1=N/N=C/c1cc(Cl)cc(Cl)c1O,T/C,[1],90 % of control
same,T/C,"dose: 100.0 mg/kg/injection, schedule: Q04DX003 (ip), vehicle: saline with Tween-80",90 % of control
same,T/C,[2],92 % of control
same,T/C,"dose: 200.0 mg/kg/injection, schedule: Q04DX003 (ip), vehicle: saline with Tween-80",90 % of control
same,T/C,[3],91 % of control
same,T/C,"dose: 400.0 mg/kg/injection, schedule: Q04DX003 (ip), vehicle: saline with Tween-80",91 % of control
CC(NC(=O)C(CCC(=O)NCC(=O)O)NC(=O)C(N)Cc1ccc(O)cc1)C(=O)NCC(=O)NC(Cc1ccc(O)cc1)C(=O)NC(CCC(=O)NCC(=O)O)C(=O)NC(C)C(=O)NCC(=O)NCC(=O)O (stereo unspecified) (H-YE(Gly)AGYE(Gly)AGG-OH; configuration not given here),T/C,[4],92 % of control
same,T/C,[5],92 % of control
same,T/C,"dose: 200.0 mg/kg/injection, schedule: Q01DX001 (ip), vehicle: saline",93 % of control
CC(C)CC1(C(C)C)C(=O)NC(=O)NC1=O,T/C,[6],89 % of control
same,T/C,"dose: 150.0 mg/kg/injection, schedule: Q01DX001 (ip), vehicle: saline",98 % of control
CC(=O)CC(=O)NCC(CCN(C)C)(c1cccc2ccccc12)C(C)C (stereo unspecified),T/C,"dose: 12.5 mg/kg/injection, schedule: Q04DX003 (ip), vehicle: saline",105 % of control
same,T/C,"dose: 25.0 mg/kg/injection, schedule: Q04DX003 (ip), vehicle: saline",97 % of control
same,T/C,"dose: 50.0 mg/kg/injection, schedule: Q04DX003 (ip), vehicle: saline",99 % of control
CCCCNCCOC(=O)c1ccc(N)cc1,T/C,[6],106 % of control
O=C(/C=C/C(=O)c1ccc(-c2ccccc2)cc1)c1ccc(-c2ccccc2)cc1,T/C,[7],92 % of control
same,T/C,[8],87 % of control
same,T/C,[9],90 % of control
same,T/C,[10],87 % of control
O=C1OC(=O)C(Cl)=C1Cl,T/C,"dose: 25.0 mg/kg/injection, schedule: Q04DX002 (ip), vehicle: saline with Tween-80",97 % of control
same,T/C,"dose: 50.0 mg/kg/injection, schedule: Q04DX002 (ip), vehicle: saline with Tween-80",93 % of control
same,T/C,[11],104 % of control and 112 % of control
CC(=O)Nc1cc(C)c(C)cc1[N+](=O)[O-],T/C,[8],102 % of control
same,T/C,[12],96 % of control
same,T/C,[9],100 % of control
same,T/C,[13],102 % of control
same,T/C,[10],105 % of control
same,T/C,[14],103 % of control
Cc1ccc(NC(C(=O)O)c2ccccc2)cc1 (stereo unspecified),T/C,[15],104 % of control
same,T/C,[16],111 % of control
O=C(Nc1cccc([N+](=O)[O-])c1)Nc1ccccc1F,T/C,[8],91 % of control
same,T/C,[15],108 % of control
same,T/C,[9],101 % of control
same,T/C,[16],91 % of control
same,T/C,[10],101 % of control
same,T/C,"dose: 400.0 mg/kg/injection, schedule: Q04DX002 (ip), vehicle: Klucel (hydroxypropylcellulose) (HPC)",94 % of control
O=C(CNC(=O)c1ccc(Cl)c(Cl)c1)N/N=C/c1ccc(Cl)cc1,T/C,[7],93 % of control
same,T/C,[8],88 % of control
same,T/C,[9],98 % of control
CCOC(=O)S(=O)(=O)c1ccc(C)cc1,T/C,"dose: 100.0 mg/kg/injection, schedule: Q04DX003 (ip), vehicle: acetone",106 % of control
same,T/C,"dose: 200.0 mg/kg/injection, schedule: Q04DX003 (ip), vehicle: acetone",96 % of control
same,T/C,"dose: 400.0 mg/kg/injection, schedule: Q04DX003 (ip), vehicle: acetone",101 % of control
CC(C)=CCN(CC=C(C)C)CCC(C#N)(c1ccc2ccccc2c1)C(C)C (stereo unspecified),T/C,[7],106 % of control
same,T/C,[8],95 % of control
same,T/C,[12],102 % of control
same,T/C,[13],98 % of control
c1cnc2c(c1)CCCC2,T/C,"dose: 50.0 mg/kg/injection, schedule: Q01DX009 (ip), vehicle: saline with Tween-80",86 % of control
same,T/C,[2],86 % of control
COc1cc(Cl)ccc1NC(=O)Oc1cccc(NC(C)=O)c1,T/C,[8],100 % of control
same,T/C,[9],89 % of control
same,T/C,[10],100 % of control
Cc1ccc(S(=O)(=O)N2CCCC(=O)c3ccc(Cl)cc32)cc1,T/C,[8],101 % of control
same,T/C,[12],96 % of control
same,T/C,[9],104 % of control
same,T/C,[13],100 % of control
same,T/C,[10],95 % of control
same,T/C,[14],91 % of control
COc1ccc(-c2c(C)nc(N)nc2OC)cc1,T/C,[11],96 % of control
same,T/C,"dose: 200.0 mg/kg/injection, schedule: Q04DX002 (ip), vehicle: saline with Tween-80",100 % of control
same,T/C,"dose: 400.0 mg/kg/injection, schedule: Q04DX002 (ip), vehicle: saline with Tween-80",96 % of control
NC(CCCC(N)C(=O)O)C(=O)O (stereo unspecified),T/C,[17],103 % of control
same,T/C,[18],100 % of control
same,T/C,"dose: 50.0 mg/kg/injection, schedule: Q04DX002 (ip), vehicle: Klucel (hydroxypropylcellulose) (HPC)",96 % of control
same,T/C,[19],93 % of control
same,T/C,[15],101 % of control
same,T/C,[16],93 % of control
Cc1ccc(OCCOc2ccc(N)cc2)cc1,T/C,"dose: 100.0 mg/kg/injection, schedule: Q04DX003 (ip), vehicle: alcohol",92 % of control
same,T/C,"dose: 200.0 mg/kg/injection, schedule: Q04DX003 (ip), vehicle: alcohol",95 % of control
same,T/C,"dose: 400.0 mg/kg/injection, schedule: Q04DX003 (ip), vehicle: alcohol",90 % of control
COc1cc2c(cc1OC)C(CCC(=O)O)=NCC2,T/C,[17],101 % of control
same,T/C,[18],104 % of control
same,T/C,[19],90 % of control
O=C(NO)C1CCC(C(=O)NO)CC1 (stereo unspecified),T/C,[1],92 % of control
same,T/C,[2],89 % of control
same,T/C,[3],89 % of control
NC(=O)C[n+]1cccc(C(=O)Nc2ccccc2)c1,T/C,[20],97 % of control
same,T/C,[21],101 % of control
same,T/C,[22],87 % of control
CC(=O)OCC1OC(N2c3ccccc3CC2C)C(OC(C)=O)C(OC(C)=O)C1OC(C)=O (stereo unspecified),T/C,"dose: 25.0 mg/kg/injection, schedule: Q01DX001 (ip), vehicle: saline",94 % of control
same,T/C,[4],94 % of control
same,T/C,[5],94 % of control
O=C(NCC(O)CNC(=O)Nc1ccc(C2=NCCN2)cc1)Nc1ccc(C2=NCCN2)cc1,T/C,"dose: 3.75 mg/kg/injection, schedule: Q01DX Z (ip), vehicle: carboxymethylcellulose (CMC)",97 % of control
same,T/C,"dose: 15.0 mg/kg/injection, schedule: Q01DX Z (ip), vehicle: carboxymethylcellulose (CMC)",244 % of control
same,T/C,"dose: 21.0 mg/kg/injection, schedule: Q01DX Z (ip), vehicle: carboxymethylcellulose (CMC)",216 % of control
same,T/C,"dose: 30.0 mg/kg/injection, schedule: Q01DX Z (ip), vehicle: carboxymethylcellulose (CMC)",164 % of control
same,T/C,"dose: 62.0 mg/kg/injection, schedule: Q01DX Z (oral), vehicle: carboxymethylcellulose (CMC)",110 % of control
same,T/C,"dose: 84.0 mg/kg/injection, schedule: Q01DX Z (ip), vehicle: carboxymethylcellulose (CMC)",104 % of control
same,T/C,"dose: 125.0 mg/kg/injection, schedule: Q01DX Z (oral), vehicle: carboxymethylcellulose (CMC)",108 % of control
same,T/C,"dose: 250.0 mg/kg/injection, schedule: Q01DX Z (oral), vehicle: carboxymethylcellulose (CMC)",104 % of control
same,T/C,"dose: 500.0 mg/kg/injection, schedule: Q01DX Z (oral), vehicle: carboxymethylcellulose (CMC)",97 % of control
O=C(/C=C/c1ccccc1)NC12CC3CC(CC(C3)C1)C2,T/C,[20],91 % of control
same,T/C,[21],93 % of control
same,T/C,[22],100 % of control
